The source of these data is patent US9192678B2, “Modified hyaluronic acid polymer compositions and related methods” (priority 2009, dated 2015).

This data set concerns medial femoral condyle cartilage of goat stifle joint. The data set can be described thus: Modified Mankin score of femoral cartilage after intra-articular injection in goats (Example 34). The format is in vivo. The protocol: A lightly crosslinked hydrogel prepared by reaction of vinyl-sulfone-modified hyaluronic acid with PEG-dithiol (HA-VS-PEG-(SH)2), containing the corticosteroid, triamcinolone acetonide, was injected into the intraarticular space of the stifle joint of female goats. Morphological, synovial fluid and histological examinations were conducted to evaluate local and systemic effects of such injections. Details of the study are provided below.
All test materials were stored at room temperature prior to use. For each Test or Control Material, a 1.5 ml dosage was prepared for each individual intra-articular injection.
A standard technique was used to inject each stifle joint, A 2-inch by 21 gauge sized sterile needle was introduced into the intra-articular space via an anteromedial approach. The lateral intercondylar notch wall of the medial femoral condyle was felt and the needle backed slightly off. 1.5 ml of the appropriate Test Material was injected into the right joint. The injection needle was removed and pressure was maintained on the injection site. The injected stifle joint was then cycled 20-times through a full range of motion. Immediately following this, the left stifle joint was cleansed with chlorohexidine scrub alternating with 70% isopropyl alcohol three times and painted with iodine solution and 1.5 ml of the Control Material was injected into the left stifle joint in a similar manner as described above for the right stifle. The injection needle was removed and pressure maintained on the injection site. The injected stifle joint was then cycled 20-times through a full range of motion.
Necropsy: Animals were humanely sacrificed at either 14 days or 28 days day post initial injection with an intravenous injection consisting of Diazepam 0.22 mg/kg and Ketamine 10 mg/kg for induction of general anesthesia. Following this, the anesthetized animals were given an IV overdose of concentrated potassium chloride (KCl) until the cardiac arrest had been verified.
Immediately after dissection and following gross joint surface evaluation a sagital section of each joint was cut through the medial femoral condyle (MFC). These sections were placed individually in 10% neutral buffered formalin. The fixed tissue was shipped by overnight carrier to Premier Laboratories for processing. The right and left MFC sections were processed using standard histological techniques and stained with hematoxylin and eosin (H&E) and Safranin-O (SAF-O) with a fast green counter stain. The slides from the MFC sections were evaluated by the Mankin Scoring System for osteoarthritis as described in Table 12.

[1] abbreviates: 28 day group, animal died prematurely (3837: 24 days, 3588: 19 days on study), not included in averages.

For `CC1(C)O[C@@H]2C[C@H]3[C@@H]4CCC5=CC(=O)C=C[C@]5(C)[C@@]4(F)[C@@H](O)C[C@]3(C)[C@]2(C(=O)CO)O1` [Triamcinolone Acetonide 8 mg/ml, triamcinolone acetonide], under setting [1], the “Cells (modified Mankin)” value is on record as 3.0, the “Safranin-O Stain (modified Mankin)” value was found to be 3.0, the “Structure (modified Mankin)” value is reported as 4.0 and the “Tide Mark Integrity (modified Mankin)” value came to 0.0. Also, the “Total Mankin Score” value under setting [1] worked out at 10.0. In addition, under “female, goat, in vivo, 14 days”, the “Cells (modified Mankin), MEAN” value was determined as 0.3; the “Safranin-O Stain (modified Mankin), MEAN” value came out at 3.3; the “Structure (modified Mankin), MEAN” value stood at 1.7; the “Tide Mark Integrity (modified Mankin)” value was determined as 0.0. In addition, where the note is “female, goat, in vivo, 14 days”, the “Tide Mark Integrity (modified Mankin), MEAN” value (“Tide Mark Integrity … MEAN” for short) was determined as 0.0 and the “Total Mankin Score, MEAN” value is on record as 5.3. In addition, where the note is “female, goat, in vivo, 28 days”, the “Cells (modified Mankin), MEAN” value turned out to be 2.0; the “Safranin-O Stain (modified Mankin)” value was determined as 4.0; the “Safranin-O Stain (modified Mankin), MEAN” value was 4.0; the “Structure (modified Mankin), MEAN” value was 3.0. Further, under “female, goat, in vivo, 28 days”, the “Tide Mark Integrity (modified Mankin)” value was found to be 0.0; the “Tide Mark Integrity … MEAN” value is 0.0; the “Total Mankin Score, MEAN” value is 9.0.

For `CC1(C)O[C@@H]2C[C@H]3[C@@H]4CCC5=CC(=O)C=C[C@]5(C)[C@@]4(F)[C@@H](O)C[C@]3(C)[C@]2(C(=O)CO)O1` [Triamcinolone Acetonide 2 mg/ml, triamcinolone acetonide], under “female, goat, in vivo, 14 days”, the “Cells (modified Mankin), MEAN” value came out at 0.7; the “Safranin-O Stain (modified Mankin), MEAN” value was found to be 3.0; the “Structure (modified Mankin), MEAN” value turned out to be 2.7; the “Tide Mark Integrity (modified Mankin)” value amounted to 0.0. In addition, under “female, goat, in vivo, 14 days”, the “Tide Mark Integrity … MEAN” value is 0.0 and the “Total Mankin Score, MEAN” value stood at 6.3. Further, for the setting “female, goat, in vivo, 28 days”, the “Cells (modified Mankin), MEAN” value is on record as 2.3; the “Safranin-O Stain (modified Mankin), MEAN” value stood at 3.3; the “Structure (modified Mankin), MEAN” value amounted to 2.7; the “Tide Mark Integrity (modified Mankin)” value is reported as 0.0. Moreover, where the note is “female, goat, in vivo, 28 days”, the “Tide Mark Integrity … MEAN” value is listed as 0.0 and the “Total Mankin Score, MEAN” value is 8.3.
